From patent US20050038111A1, “Pharmaceutical formulation comprising bicalutamide” (priority 2001, published 2005) come the findings set out here.

Where a name gives a salt, the structure may show the parent alone.

Data set [1] in a line: pH shift dissolution test (SGF pH 1.5 then pH 6.5). Format: physicochemical. Conditions: 1 h SGF pH 1.5 then 1 h at pH 6.5.
The nature of data set [2]: Crystallinity assessment by X-ray powder diffraction (XRPD). Format: physicochemical. The protocol: Dispersion prepared from a solution of bicalutamide and tamoxifen citrate.
X-ray diffraction analysis was performed according to standard methods which can be found in e.g. Bunn, C. W. (1948), Chemical Crystallography, Clarendon Press, London; or Klug, H. P. & Alexander, L. E. (1974), X-Ray Diffraction Procedures, John Wiley and Sons, New York.

With `CC/C(=C(\c1ccccc1)c1ccc(OCCN(C)C)cc1)c1ccccc1` [tamoxifen citrate, (Z)-2-[p-(1,2-diphenylbut-1-enyl)phenoxy]ethyldimethylamine], the “tamoxifen in solution post shift” value in data set [1] is given as “approx. 80%”. For the same compound, the “crystalline tamoxifen citrate by XRPD” value in data set [2] is “crystalline”.
